Here are results for four compounds from BindingDB's records for doi:10.1074/jbc.M114.558353 (Harvard School of Public Health, 2014).

Experiment [1] addresses Dihydroorotate dehydrogenase (quinone), mitochondrial (Homo sapiens, UniProt Q02127). Description: DHODH Biochemical Assay.
Experiment [2] concerns the target T1, Dihydroorotate dehydrogenase (quinone), mitochondrial (Plasmodium falciparum (isolate 3D7), UniProt Q08210).
T1 sequence (Q08210 whole entry): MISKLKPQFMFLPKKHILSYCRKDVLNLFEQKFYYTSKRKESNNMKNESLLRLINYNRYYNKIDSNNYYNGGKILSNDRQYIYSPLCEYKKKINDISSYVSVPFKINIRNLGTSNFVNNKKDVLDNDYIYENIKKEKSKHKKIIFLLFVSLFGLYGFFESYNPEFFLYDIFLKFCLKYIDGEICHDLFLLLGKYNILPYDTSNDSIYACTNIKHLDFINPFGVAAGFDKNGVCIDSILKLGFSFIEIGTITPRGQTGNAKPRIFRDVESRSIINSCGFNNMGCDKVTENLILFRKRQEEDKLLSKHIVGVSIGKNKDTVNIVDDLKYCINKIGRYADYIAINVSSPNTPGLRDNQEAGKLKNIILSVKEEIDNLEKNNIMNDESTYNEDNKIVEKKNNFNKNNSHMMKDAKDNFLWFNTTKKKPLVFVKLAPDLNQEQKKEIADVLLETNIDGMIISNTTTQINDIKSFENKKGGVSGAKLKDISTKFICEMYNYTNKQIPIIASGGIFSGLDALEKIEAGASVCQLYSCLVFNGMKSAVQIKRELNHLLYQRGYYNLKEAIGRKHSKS
Description: DHODH Biochemical Assay.

Where only a bound is given, the exact number is not on record here.

As a reminder, the IC50 is the point on the concentration scale where inhibition reaches its midpoint. High values mean weaker potency, low ones greater potency.

Sequence of Dihydroorotate dehydrogenase (quinone), mitochondrial (Homo sapiens, UniProt Q02127) (Q02127 whole entry): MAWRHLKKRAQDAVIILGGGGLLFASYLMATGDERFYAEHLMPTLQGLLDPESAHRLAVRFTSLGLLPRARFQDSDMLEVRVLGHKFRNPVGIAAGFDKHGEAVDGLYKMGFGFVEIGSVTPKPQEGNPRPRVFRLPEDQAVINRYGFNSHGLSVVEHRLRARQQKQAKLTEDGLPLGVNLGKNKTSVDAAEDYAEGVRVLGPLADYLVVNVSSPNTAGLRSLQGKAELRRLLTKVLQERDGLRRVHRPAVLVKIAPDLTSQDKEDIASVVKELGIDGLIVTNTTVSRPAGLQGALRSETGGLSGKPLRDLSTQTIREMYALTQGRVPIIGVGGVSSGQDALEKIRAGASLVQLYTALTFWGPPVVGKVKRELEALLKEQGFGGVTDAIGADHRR

In the case of `Cc1nc2c(C#N)cccc2n1-c1ccc(C(=O)NC2CC2)s1`, the values for the IC50 in experiment [1] and in experiment [2] were more than 30 µM and 0.08 µM, respectively.
Consider `CCSc1nnc(C2CCCN(CC(=O)Nc3cc(C(F)(F)F)ccc3Cl)C2)n1CC` (stereo not drawn) [GSK3], for which the IC50 is more than 30 µM in experiment [1] and 1.7 µM in experiment [2].
For the compound `Cc1nnc2c3ccccc3c(N3CCc4ccccc4C3)nn12` [IDI-6253], the results for the IC50 in experiment [1] and in experiment [2] were 3.8 µM and 3.5 µM, respectively.
With `CCOc1cccc(=O)c2c(C)n(Cc3ccc(Cl)cc3)c(C)c12` [IDI-6273], the figures for the IC50 in experiment [1] and in experiment [2] were more than 30 µM and 13.5 µM, respectively.
